Data: patent US9029332B2, “Cross-linked peptides and proteins, methods of making same, and uses thereof” (The Research Foundation for The State University of New York, priority 2010, dated 2015)
Numbered stars: 1 amine (or outer) side, 2 acyl side, 3 side chain; on linkers, the order of the positions; unused ones are H or OH. Bridge positions count the residues as written; N and C are the ends. Square brackets hold non-standard residues; d marks the D form. Peptide text beside a SMILES is read from it. CH2(3,3'-bipyridine-6,6')CH2 = c1cc(C[*:1])ncc1-c1ccc(C[*:2])nc1

What was measured:
[1] = system: HeLa cells; experiment: FACS analysis of cell permeability of fluorescein-conjugated peptides; format: cell-based; conditions: 10 μM fluorescein-conjugated peptide, 2 h
Description: FACS Analysis. HeLa Cells were cultured in DMEM medium supplemented with 10% fetal bovine serum in 6-well plate in a 37° C., 5% CO2 incubator to reach confluency of around 70%. The cells were then washed twice with PBS before switching to serum-free DMEM medium. After standing in the incubator for 30 minutes, appropriate amounts of peptides (1 mM in DMSO) were added to the culture plate to obtain a final peptide concentration of 10 μM. Cells were incubated at 37° C. for additional 2 hrs. Then the medium was removed and the cells were washed with PBS (3×) followed by treatment with trypsin to detach the cells. After a brief low-speed centrifugation, the HeLa cells were collected and re-suspended in PBS for the FACS analysis.

[2] = system: HeLa cells; experiment: Confocal microscopy of fixed HeLa cells, cellular fluorescence; format: cell-based; conditions: 10 μM fluorescein-conjugated peptide, 2 hours
Description: (§1) FIG. 8. (a) Confocal images of fixed HeLa cells after treatment with 10 μM of fluorescein-conjugated peptides for 2 hours. Scale bar=50 μm. (b) Cell viability assay using the CellTiter-Glo reagent.
HeLa Cells were seeded into 35 mm glass bottom microwell dishes (MatTek, Ashland, Mass.) at a density of 3×105 in DMEM medium supplemented with 10% fetal bovine serum, and the cells were allowed to grow in a 37° C. 5% CO2 incubator for 48 hours. After removing medium, the cells were washed twice with PBS and then incubated in serum-free DMEM medium for 30 minutes. Appropriate amounts of peptides (1 mM in DMSO) were then added to obtain a final concentration of 10 μM and cells were incubated at 37° C. for 2 hours. After PBS wash, cells were treated with 4% formaldehyde in PBS for 20 minutes at room temperature. The fixation medium was removed and the cells were washed with PBS (3×) before placing cells into the low florescent mounting medium for fluorescent imaging acquisition.

[3] = system: HeLa cells; experiment: Cell viability assay (CellTiter-Glo, ATP) and DIC imaging, cytotoxicity; format: cell-based; conditions: 10 μM, 2 hours; DIC channel and ATP assay
Description: as §1
Cell Viability Assay. HeLa cells were seeded into an opaque 96-well plate at a density of 1×10^4 per well in 100 μL DMEM medium supplemented with 10% FBS and the cells were allowed to grow in a 37° C. 5% CO2 incubator for 48 hrs to reach confluency of around 80%. Prior to the compound treatment, the medium was replaced with serum-free medium and the cells were incubated for 30 minutes. Appropriate amounts of peptides (1 mM in DMSO) were then added to obtain a final concentration of 10 μM and the cells were incubated at 37° C. for 2 hours. Afterwards, the plate was allowed to stand at room temperature for 30 minutes before 100 μL of Cell-Titer Glow reagent (Promega) was added. The plate was incubated at room temperature for 10 minutes. The luminescence signals were recorded with an FLX 800 luminescence plate reader (BioTek). The plotted data represented the average of the readings from 4 separate wells.

[4] = target: T1, full-length human MDMX (GST-MDMX) (Homo sapiens, UniProt O15151); experiment: ELISA, inhibition of p53-MDMX interaction; format: binding; conditions: relative to linear counterpart 3
T1 construct: GST-MDM2 and GST-MDMX containing full-length human MDM2 and MDMX; made in house; host or cells: Escherichia coli
T1 sequence (O15151 1-490): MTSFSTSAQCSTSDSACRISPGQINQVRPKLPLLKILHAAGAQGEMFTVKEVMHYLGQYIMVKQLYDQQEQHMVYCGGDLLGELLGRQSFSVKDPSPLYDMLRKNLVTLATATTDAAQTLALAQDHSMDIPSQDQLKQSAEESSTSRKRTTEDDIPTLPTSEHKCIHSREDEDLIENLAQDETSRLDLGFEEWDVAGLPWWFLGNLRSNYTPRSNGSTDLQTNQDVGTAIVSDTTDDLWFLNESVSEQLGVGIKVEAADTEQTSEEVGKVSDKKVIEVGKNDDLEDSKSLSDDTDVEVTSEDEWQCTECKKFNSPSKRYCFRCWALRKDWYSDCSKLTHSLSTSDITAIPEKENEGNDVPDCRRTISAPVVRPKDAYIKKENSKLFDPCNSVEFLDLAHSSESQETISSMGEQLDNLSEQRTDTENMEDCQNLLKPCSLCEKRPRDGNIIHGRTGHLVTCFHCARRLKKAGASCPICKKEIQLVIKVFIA
From the text: FIG. 10. ELISA data of the cross-linked PDI analogs. The experiments were repeated three times and the resulting data were plotted with GraphPad Prism 5.0 to derive the average IC50 values along with standard deviations.
ELISA Assay. GST-MDM2 and GST-MDMX containing full-length human MDM2 and MDMX and His6-tagged human p53 were expressed in Escherichia coli and purified by glutathione agarose and Ni^2+-nitrilotriacetic acid beads, respectively, under non-denaturing conditions. Microtiter plates were coated with 2.5 μg/ml His6-p53 in PBS buffer for 16 hours. After washing with PBS containing 0.1% Tween-20 (PBST), the plates were blocked with PBST containing 5% nonfat dry milk (PBSTM) for 30 minutes. Peptides were dissolved in DMSO. GST-MDM2 and MDMX (5 μg/ml) were mixed with peptides in PBSMT containing 10% glycerol and 10 mM dithiolthreitol prior to their additions to the wells at the specified concentrations. The incubation was allowed to proceed for 1 hour at room temperature before the plates were washed with PBST. […] The plates were developed by incubation with TMB peroxidase substrate (KPL, Gaithersburg, Md.) and measured by absorbance at 450 nm. The data was analyzed with the Origin 6.0 software. […]

[5] = Circular dichroism, percent helicity; format: physicochemical; conditions: compared to the linear NoxaBH3 peptide, 50 μM in 20% ACN/H2O
Description: FIG. 12. […] The peptides were dissolved in 20% ACN/H2O for a final concentration of 50 μM.
Circular Dichroism Study. […] The spectra were recorded in the wavelength range of 190-250 nm and averaged over 3 scans with a resolution of 0.5 nm, a bandwidth of 1.0 nm and a response time of 4 s. The sensitivity and the speed of the spectrometer were set to 100 mdeg and 50 nm/min, respectively. All peptides were dissolved in 20% acetonitrile/H2O to reach final concentration of 50 μM.

[6] = target: GST-Mcl-1 (Homo sapiens, UniProt Q07820); experiment: Competitive fluorescence polarization assay; format: binding
Sequence of GST-Mcl-1 (Q07820 whole entry): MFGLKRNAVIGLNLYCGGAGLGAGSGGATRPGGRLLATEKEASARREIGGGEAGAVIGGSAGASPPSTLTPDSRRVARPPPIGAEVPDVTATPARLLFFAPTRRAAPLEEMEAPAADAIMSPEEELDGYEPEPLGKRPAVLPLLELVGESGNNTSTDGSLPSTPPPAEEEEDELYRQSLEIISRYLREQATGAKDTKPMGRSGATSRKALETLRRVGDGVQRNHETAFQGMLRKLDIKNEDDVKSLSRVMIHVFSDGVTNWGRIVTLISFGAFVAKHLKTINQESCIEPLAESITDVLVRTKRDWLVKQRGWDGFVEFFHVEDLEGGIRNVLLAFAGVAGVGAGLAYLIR
Description: Competitive Florescence Polarization Assay. The binding affinity of the Noxa peptides toward GST-Mcl-1 was determined in a competitive fluorescence polarization assay with the fluorescein-labeled Bak or Bim. Briefly, fluorescein-labeled Bak was incubated with GST-Mcl-1 in a binding buffer (PBS, 0.005% Tween-20, pH7.4) at room temperature in a 96-well microtiter plate. […] The reading was repeated at various time points to ensure that the competition has reached equilibrium.

[7] = target: Mcl-1 (Homo sapiens, UniProt Q07820); experiment: ELISA of cross-linked Noxa peptides; format: binding
Sequence of Mcl-1 (Q07820 whole entry, species assumed): as the sequence (Q07820 whole entry) above

[8] = system: HeLa cells; experiment: Cellular uptake of fluorescein-labeled Noxa peptides by FACS and fluorescence microscopy; format: cell-based; conditions: 10 μM fluorescein-labeled peptide, 2 hours
Description: FIG. 13. […] (a) Flow cytometry analysis of cell permeability of the FITC-labeled linear or stapled peptide. HeLa cells were treated with 10 μM of fluorescein-labeled peptides in serum-free DMEM medium for 2 hours followed by fixation with formaldehyde. (b) Fluorescent micrographs of HeLa cells treated with 10 μM of fluorescein-labeled (Fl) linear or cross-linked NoxaBH3 peptide. Scale bar=50 μm.
To investigate cellular uptake of the cross-linked peptides, the N-terminal fluorescein-labeled cross-linked NoxaBH3 peptides (5a, 6a, 7a, 8a) and linear peptide Fl-Noxa-(75-93)-C75A were prepared and their uptakes into HeLa cells were examined by both FACS and fluorescence microscopy. […] To examine whether the cross-linked peptides induce apoptosis, Mcl-1-overexpressing Raji cells and K562 cells co-transfected with Mcl-1/BimEL were treated with the cross-linked peptides and the cell viabilities were measured by CellTiter-Glo reagent. […] For the remaining peptides, the following SEQ ID NOs apply: peptide 9a and 10A are SEQ ID NO:17; 11a and 12 a are SEQ ID NO:18; 5c, 5d, 5e, Fluo-5a, Fluo-6a, and Fluo-6b are SEQ ID NO:16; Fluo-NoxaB^75-94-C75A is SEQ ID NO:15; and Fluo-71 is SEQ ID NO:17.

Structure (SMILES) | cellular fluorescence, FITC channel [2] | cytotoxicity [3] | enhancement in percent helicity [5] | cellular uptake [8] | also measured
CC(=O)N[C@@H](CC(C)C)C(=O)N[C@H](C(=O)N[C@@H](Cc1ccccc1)C(=O)N[C@H]1CSCc2ccc(cn2)-c2ccc(nc2)CSC[C@@H](C(=O)N[C@@H](CO)C(N)=O)NC(=O)[C@H](CC(C)C)NC(=O)[C@H](CCCNC(=N)N)NC(=O)[C@H](C)NC(=O)[C@H](Cc2c[nH]c3ccccc23)NC(=O)[C@H](Cc2ccc(O)cc2)NC(=O)[C@H](CCCNC(=N)N)NC1=O)[C@@H](C)O [Peptide 2b, LTFC″RYWARLC″S] (Ac-LTFCRYWARLCS-NH2; linker 4-11 via CH2(3,3'-bipyridine-6,6')CH2) | strongest cellular fluorescence | apparent cytotoxicity |  |  | increase in mean fluorescence / permeability by arginine substitution ([1]; compared to charge-neutral counterpart): 2 fold; increase in mean fluorescence by Bpy cross-linking ([1]; over linear counterpart): ~5 fold
CC(=O)N[C@@H](CC(C)C)C(=O)N[C@H](C(=O)N[C@@H](Cc1ccccc1)C(=O)N[C@@H]1CSCc2ccc(cn2)-c2ccc(nc2)CSC[C@@H](C(=O)N[C@@H](CO)C(N)=O)NC(=O)[C@H](CC(C)C)NC(=O)[C@H](CCC(N)=O)NC(=O)[C@H](C)NC(=O)[C@H](Cc2c[nH]c3ccccc23)NC(=O)[C@H](Cc2ccc(O)cc2)NC(=O)[C@H](Cc2c[nH]cn2)NC1=O)[C@@H](C)O [Peptide 3b, LTFc″HYWAQLC″S] (Ac-LTF[dC]HYWAQLCS-NH2; linker 4-11 via CH2(3,3'-bipyridine-6,6')CH2) |  | did not show any cytotoxicity |  |  | increase in MDMX activity [4]: 24 fold
CC(=O)N[C@@H](CC(C)C)C(=O)N[C@H](C(=O)N[C@@H](Cc1ccccc1)C(=O)N[C@@H]1CSCc2ccc(cn2)-c2ccc(nc2)CSC[C@@H](C(=O)N[C@@H](CO)C(N)=O)NC(=O)[C@H](CC(C)C)NC(=O)[C@H](CCCNC(=N)N)NC(=O)[C@H](C)NC(=O)[C@H](Cc2c[nH]c3ccccc23)NC(=O)[C@H](Cc2ccc(O)cc2)NC(=O)[C@H](CCCNC(=N)N)NC1=O)[C@@H](C)O [Peptide 4b, LTFc″RYWARLC″S] (Ac-LTF[dC]RYWARLCS-NH2; linker 4-11 via CH2(3,3'-bipyridine-6,6')CH2; C-terminus assumed) | strongest cellular fluorescence | apparent cytotoxicity |  |  | 
CC[C@H](C)[C@@H]1NC(=O)[C@H](CCCNC(=N)N)NC(=O)[C@H](CCCNC(=N)N)NC(=O)[C@H](CC(C)C)NC(=O)[C@H](NC(=O)[C@H](C)NC(=O)[C@H](C)NC(C)=O)CSCc2ccc(cc2)-c2ccc(cc2)CSC[C@@H](C(=O)N[C@H](C(=O)N[C@@H](CC(N)=O)C(=O)N[C@@H](CC(C)C)C(=O)N[C@@H](CCCNC(=N)N)C(=O)N[C@@H](CCC(N)=O)C(=O)N[C@@H](CCCCN)C(=O)N[C@@H](CC(C)C)C(=O)N[C@@H](CC(C)C)C(=O)N[C@@H](CC(N)=O)C(N)=O)C(C)C)NC(=O)[C@H](CC(=O)O)NC(=O)CNC1=O [Peptide 6a] |  |  | roughly 2 fold | robust uptakes | IC50 ([6]; Noxa peptides, three repeats ± SD, read-out: FP, IC50): 73 ± 18 nM; increase in activity in FPA ([6]; compared to the parent linear peptide): 37 fold; IC50 [7]: 260 nM
CC[C@H](C)[C@@H]1NC(=O)[C@H](CCCNC(=N)N)NC(=O)[C@H](CCCNC(=N)N)NC(=O)[C@H](CC(C)C)NC(=O)[C@@](C)(NC(=O)[C@H](C)NC(=O)[C@H](C)NC(C)=O)CSCc2ccc(cc2)-c2ccc(cc2)CSC[C@@](C)(C(=O)N[C@H](C(=O)N[C@@H](CC(N)=O)C(=O)N[C@@H](CC(C)C)C(=O)N[C@@H](CCCNC(=N)N)C(=O)N[C@@H](CCC(N)=O)C(=O)N[C@@H](CCCCN)C(=O)N[C@@H](CC(C)C)C(=O)N[C@@H](CC(C)C)C(=O)N[C@@H](CC(N)=O)C(N)=O)C(C)C)NC(=O)[C@H](CC(=O)O)NC(=O)CNC1=O [Peptide 8a] |  |  | ~3 fold | robust uptakes | 
